Tests used:
[1] = system: human chordoma CM-319 cells; assay: CCK-8 proliferation inhibition of human chordoma CM-319 cells; type: cell-based
Procedure: Drug: chlorogenic acid raw material (99.6% purity, Sichuan Jiuzhang Biotechnology Co., Ltd.) Cell line: human chordoma cell line CM-319 cells (West China Hospital, Sichuan University)
Human chordoma CM-319 cells growing in logarithmic phase was collected, and the cell concentration was adjusted to 6×10^5 cells/ml with 1640 medium. 100 μL suspension of above cells was taken out and inoculated into 96 well plate, and each experimental group has three replicate wells. To each well, was added 100 μL corresponding drugs, so that the final concentration of chlorogenic acid in the experimental group is 10 μmol/L, 20 μmol/L, and 40 μmol/L, respectively, and then the plate was further cultured for 24 hours. In the negative control group, no drug was added, and only the same volume of 100 μL culture medium was added. After 24 hours, 10 μL CCK-8 solution was added to each well, and the culture plate was incubated in the incubator for another one hour. The absorbance of each well was measured at 450 nm by ELISA. The inhibition of chlorogenic acid on human chordoma CM-319 cells was calculated at various concentrations by using the growth inhibition rate=(absorbance of the negative control group at 450 nm—absorbance of the experimental group at 450 nm)/absorbance of the negative control group at 450 nm×100%.

[2] = system: MDR1 expression in human chordoma CM-319 cells; settings: RT-PCR, FIG. 1
Text: MDR1 primer (Shanghai Bioengineering Co., Ltd.); RNA extraction kit (Jiangsu biyuntian); reverse transcription synthesis kit (Jiangsu biyuntian); chlorogenic acid API (purity 99.6%, Sichuan Jiuzhang Biotechnology Co., Ltd.).
In this example, RT-PCR was used to detect the effect of different experimental groups on the expression of MDR1 in human chordoma CM-319 cells. CM-319 cells cultured in 6-well plate was collected, and RNA extraction kit was used to extract total RNA in cells, then reverse transcription synthesis kit was used to transcribe the first strand of cDNA. After that, PCR amplification reaction was used to detect the expression level of target genes in different experimental groups.

[3] = different concentrations (10, 20, 40 μmol/L)

Question: With `O=C(/C=C/c1ccc(O)c(O)c1)O[C@@H]1C[C@](O)(C(=O)O)C[C@@H](O)[C@H]1O` [chlorogenic acid] as the compound, how does the inhibition at 10 µM ([1]; Homo sapiens, Group 1: chlorogenic acid 10 μmol/L, 24 hours, CCK-8, read-out: Inhibitory rate of cells (%)) read?
Answer: 36.8 ± 5.12%

Question: And the inhibition at 20 µM ([1]; Homo sapiens, Group 2: chlorogenic acid 20 μmol/L, 24 hours, CCK-8, read-out: Inhibitory rate of cells (%))?
Answer: 48.4 ± 6.11%

Question: And the inhibition at 40 µM ([1]; Homo sapiens, Group 3: chlorogenic acid 40 μmol/L, 24 hours, CCK-8, read-out: Inhibitory rate of cells (%))?
Answer: 55.5 ± 3.78%

Question: And the “inhibition of proliferation of human chordoma cells (in words)” value [1, 3]?
Answer: strongly inhibit human chordoma cells

Question: What about the “expression level of MDR1 in CM-319 cells (in words)” value [2, 3] of the same compound?
Answer: reduce the expression level of MDR1 in CM-319 cells to various degrees

Question: What about the “expression level of drug-resistant genes (MDR1) in cells (in words)” value ([2]; high concentration 40 μmol/L, compared with other groups) of the same compound?
Answer: significantly reduce the expression level of drug-resistant genes

Source: patent US11547715B2, “Use of chlorogenic acid in preparation of drug for treating chordoma” (SICHUAN JIUZHANG BIOLOGICAL SCIENCE AND TECHNOLOGY CO., LTD, priority 2017, dated 2023)
